Measurements published in PubChem BioAssay (NCI).
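Values below derive from 48-hour exposures of cells grown in 96-well plates, with endpoints linearly interpolated between the two concentrations bracketing the appropriate inhibition level. Abbreviation: GI50, concentration required for 50% inhibition of growth. TGI: total growth inhibition.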

Columns and labels:
Assay in all cases: NCI anticancer screen, dose series, 48 h
UACC-257 melanoma = tested on: UACC-257 melanoma
HCT-15 colon = tested on: HCT-15 colon
NCI-H460 lung = tested on: NCI-H460 lung
UO-31 renal = tested on: UO-31 renal
KM12 colon = tested on: KM12 colon
SNB-75 CNS = tested on: SNB-75 CNS
UACC-62 melanoma = tested on: UACC-62 melanoma
SF-539 CNS = tested on: SF-539 CNS
HS 578T breast = tested on: HS 578T breast
CCRF-CEM leukemia = tested on: CCRF-CEM leukemia

Row | SMILES | TGI (UACC-257 melanoma) [µM] | TGI (HCT-15 colon) [µM] | TGI (NCI-H460 lung) [µM] | TGI (UO-31 renal) [µM] | TGI (KM12 colon) [µM] | TGI (SNB-75 CNS) [µM] | TGI (UACC-62 melanoma) [µM] | TGI (SF-539 CNS) [µM] | GI50 (HS 578T breast) [µM] | TGI (HS 578T breast) [µM] | GI50 (UACC-257 melanoma) [µM] | GI50 (HCT-15 colon) [µM] | GI50 (UO-31 renal) [µM] | GI50 (KM12 colon) [µM] | GI50 (SNB-75 CNS) [µM] | GI50 (UACC-62 melanoma) [µM] | GI50 (SF-539 CNS) [µM] | TGI (CCRF-CEM leukemia) [µM] | GI50 (CCRF-CEM leukemia) [µM] | GI50 (NCI-H460 lung) [µM]
1 | CC(=O)OC1CCn2nnc(COC(=O)NC(C)C)c21 (stereo not drawn) | > 100 | > 100 | > 100 | > 100 | > 100 | > 100 | > 100 | > 100 |  |  |  |  |  |  |  |  |  |  |  | 
2 | CC(=O)/C=C/C1=C(c2cc3ccccc3s2)c2ccccc2CC1 | 59.7 | 67.3 |  | 59.4 | 42.2 | > 100 | 34.2 | 64.7 | 52.5 | > 100 | 24.4 | 21.8 | 21 | 18.5 | 29.8 | 16.7 | 27.2 |  |  | 
3 | COc1ccc(C(c2ccc(C(C)C)cc(=O)c2O)c2c(O)cc3oc(-c4ccccc4)cc(=O)c3c2O)cc1 (stereo not drawn) | 72.4 | 43.6 | 15.8 |  |  | > 100 | 42.9 | 21.5 |  |  |  |  |  |  |  |  |  | > 100 |  | 
4 | O=c1c2ccc3cccc4c(=O)cc(c5ccccc15)-c2c34 | > 100 | > 100 | > 100 | > 100 | > 100 | > 100 | > 100 |  |  |  |  |  |  |  |  |  |  | > 100 |  | 
5 | Cc1c(C(=O)/C=C/c2ccc(Cl)cc2)[n+](=O)c2ccccc2n1[O-] | 30.4 | 24.1 | 29.1 | 29.9 | 22.7 | 40.7 | 26.8 | 25.7 |  |  |  |  |  |  |  |  |  | > 100 |  | 
6 | CCCCCCCCCCCC(=O)OCC1OC(n2cc(F)c(=O)[nH]c2=O)C(N)C(OC(=O)CCCCCCCCCCC)C1O (stereo not drawn) | > 100 | > 100 | > 100 | > 100 | > 100 | > 100 | > 100 | > 100 |  |  |  |  |  |  |  |  |  | > 100 |  | 
7 | CCCNCc1nc2ccc(Br)cc2c(=O)n1CCC | 26 | 27.4 |  | 29.8 | 29.3 | 31.7 | 19.8 | 29.5 |  |  |  |  |  |  |  |  |  | 36.3 |  | 
8 | Nc1cc(-c2ccccc2)ccc1O | > 100 | > 100 | > 100 | > 100 | > 100 | > 100 | > 100 | > 100 |  |  | > 100 | 68.7 | 34 | 58.4 | > 100 | 37.3 | > 100 | > 100 | 23.2 | > 100
9 | O=c1ccccc2cccc(O)c12 | > 100 | > 100 | > 100 |  |  | > 100 | > 100 | > 100 |  |  |  |  |  |  |  |  |  | > 100 |  | 
10 | CCC[CH2][Sn]([CH2]CCC)([O]C(=O)c1cccc(F)c1)[O]C(=O)c1cccc(F)c1 | 2.6 | 3.45 | 5.38 | 2.47 | 2.79 | 1.94 | 2.09 | 2.31 |  |  | 1.17 | 1.16 | 1.23 | 1.29 | 0.657 | 0.719 | 1.1 | 0.832 | 0.239 | 2.08
11 | Cc1ccc(NC(=O)/C(CC(=O)c2c[n+](=O)c3ccccc3n2O)=N\NC(=O)C[n+]2ccccc2)cc1 | > 100 | > 100 | > 100 | > 100 | > 100 | > 100 | > 100 | > 100 |  |  |  |  |  |  |  |  |  | > 100 |  | 
12 | CC(=O)OC12c3ccccc3C1CCCCCC21OCCCO1 (stereo not drawn) |  | > 100 | > 100 | > 100 | > 100 | > 100 | > 100 | > 100 |  |  |  |  |  |  |  |  |  | > 100 |  | 
13 | N=C(N)SCCc1cn2ccccc2n1 | > 100 | > 100 | > 100 | > 100 | > 100 | > 100 |  | > 100 |  |  |  |  |  |  |  |  |  | > 100 |  | 
14 | CCCCCCCCCCCCCCCC(=O)OCC(O)C1OC(=O)C(O)=C1O (stereo not drawn) | > 100 | > 100 | > 100 | 59.9 | 53 | 46 | 75 | 53.2 |  |  |  |  |  |  |  |  |  | 47.5 |  | 
15 | O=C1CCCC/C1=C/C=C/c1ccccc1 | > 100 |  | > 100 | > 100 | > 100 | > 100 | > 100 | > 100 |  |  |  |  |  |  |  |  |  | > 100 |  | 
16 | COc1ccc2c3c1C(=O)CCC3CO2 (stereo not drawn) | > 100 | > 100 | > 100 | > 100 | > 100 |  | > 100 | > 100 |  |  |  |  |  |  |  |  |  | > 100 |  | 
17 | C=C1CC(CCCl)(c2ccccc2)OC1=O (stereo not drawn) | > 75.1 | 39.2 | > 100 | > 100 | > 100 | 71 | > 100 | > 62 |  |  |  |  |  |  |  |  |  | 49.2 |  | 
18 | O=C(O)/C(=C/c1ccccc1[N+](=O)[O-])c1ccccc1 | > 100 | > 100 | > 100 | > 100 | > 100 | > 100 | > 100 | > 100 |  |  |  |  |  |  |  |  |  |  |  | 

Row | SMILES | TGI (UACC-257 melanoma) [µM] | TGI (HCT-15 colon) [µM] | TGI (NCI-H460 lung) [µM] | TGI (UO-31 renal) [µM] | TGI (KM12 colon) [µM] | TGI (SNB-75 CNS) [µM] | TGI (UACC-62 melanoma) [µM] | TGI (SF-539 CNS) [µM] | GI50 (HS 578T breast) [µM] | TGI (HS 578T breast) [µM] | GI50 (UACC-257 melanoma) [µM] | GI50 (HCT-15 colon) [µM] | GI50 (UO-31 renal) [µM] | GI50 (KM12 colon) [µM] | GI50 (SNB-75 CNS) [µM] | GI50 (UACC-62 melanoma) [µM] | GI50 (SF-539 CNS) [µM] | TGI (CCRF-CEM leukemia) [µM] | GI50 (CCRF-CEM leukemia) [µM] | GI50 (NCI-H460 lung) [µM]
19 | N=C(c1ccccc1)N(O)C1CCCCC1 | > 100 |  | > 100 | > 100 | > 100 | > 100 |  | > 100 |  |  |  |  |  |  |  |  |  |  |  | 
20 | CN(C)CCn1c2ccccc2c2nc3cc4ccccc4cc3nc21 |  | 18.7 | 2.48 | 18.1 | 16.8 |  | 21.1 |  |  |  |  |  |  |  |  |  |  | 14.7 |  | 
21 | CN1CCN(c2ccc3c4c(cccc24)C(=O)N(CCN2CCN(CCCN4CCN(CCN5C(=O)c6cccc7c(N8CCN(C)CC8)ccc(c67)C5=O)CC4)CC2)C3=O)CC1 | 18.4 | 11.3 | 33.5 |  | 14.1 | 14.1 | 15.7 | 16.9 | 10.6 | 38.7 | 10.2 | 4.08 |  | 4.34 | 7 | 8.45 | 7.67 |  |  | 5.54
22 | O=c1/c(=C/c2ccc(Cl)cc2Cl)sc2nc3ccccc3n12 | > 100 | > 100 | > 100 | > 100 | > 100 | > 100 | > 100 | > 100 |  |  |  |  |  |  |  |  |  | > 100 |  | 
23 | CC(=O)N1CC2Nc3ccccc3C2CC1CO (stereo not drawn) | > 100 | > 100 | > 100 | > 100 | > 100 | > 100 | > 100 | > 100 |  |  |  |  |  |  |  |  |  | > 100 |  | 
24 | COc1cc2c(c(OC)c1OC)-c1[nH]ncc1CC2 | > 100 | > 100 | > 100 | > 100 | > 100 | > 100 | > 100 | > 100 |  |  |  |  |  |  |  |  |  | > 100 |  | 
25 | Cn1c(CCC#N)nc2ccc(Br)cc2c1=O | > 100 | > 100 | > 100 | > 100 | > 100 | > 100 | > 100 | > 100 |  |  |  |  |  |  |  |  |  | > 100 |  | 
26 | CC(C)C(=O)N[C@@H](C)C(=O)N(Cc1ccc2ccccc2c1)N=O | > 100 | > 100 | > 100 | > 100 |  | > 100 | > 100 | > 100 |  |  |  |  |  |  |  |  |  | > 100 |  | 
27 | Nc1ccc(Nc2nc(F)nc(-c3c4ccccc4c4n3CCS4)n2)cc1 |  | 25.5 |  | 22.2 | 26.5 | 31 |  | 27.6 |  |  |  |  |  |  |  |  |  | 62.2 |  | 
28 | C(=C\c1csnn1)/c1cccnc1 | > 100 | > 100 | > 100 | > 100 | > 100 | > 100 |  | > 100 |  |  |  |  |  |  |  |  |  |  |  | 
29 | N#Cc1ccccc1C#C/C=C\C#Cc1ccc(OCCCNC(=O)c2cc3ccccc3[nH]2)cc1 | > 100 | > 100 | > 100 | 35.4 | 44.2 | 42.6 | 28.4 | 35.6 |  |  | 23 | 26.2 | 17 | 16.3 | 17.9 | 13.7 | 15.4 | 44.3 | 4.6 | 33.9
30 | CC1=CC(C)(C)N=C2SC(c3ccc(Cl)cc3)=NN12 | > 100 | > 100 | > 100 | 50.4 | > 100 |  | > 100 | > 100 |  |  |  |  |  |  |  |  |  | > 100 |  | 
31 | O=c1cc(Cl)nc[nH]1 | > 100 | > 100 | > 100 | > 100 | > 100 | > 100 | > 100 |  |  |  |  |  |  |  |  |  |  | > 100 |  | 
32 | CCOC(=O)/N=C(\N)SCc1ccccc1 | > 100 | > 100 | > 100 | > 100 | > 100 | > 100 | > 100 | > 100 |  |  |  |  |  |  |  |  |  | > 100 |  | 
33 | O=C(CCC(=O)Nc1ccc(Cl)cc1)CC(=O)c1ccc(F)cc1 | > 100 | > 100 | > 100 | > 100 | > 100 | > 100 | > 100 | > 100 |  |  |  |  |  |  |  |  |  |  |  | 
34 | O=C(Nc1c(-c2nc3ccccc3[nH]2)sc(=S)n1-c1ccccc1)c1ccccc1 | > 100 | > 100 |  | > 100 | > 100 | 58.4 | > 100 | > 100 |  |  |  |  |  |  |  |  |  | > 100 |  | 
35 | O=Cc1ccc(-c2ccc(-c3ccc(C=O)s3)o2)s1 | 16.2 | > 100 | > 100 | > 100 | > 100 | 78.8 | 0.441 | > 100 |  |  |  |  |  |  |  |  |  | > 100 |  | 
